Read-outs that look alike come from different tables or passages of the source. Marks after values point to notes of the source that are not given here.

One data set has as its system GST-P-positive lesions. As to the kind of experiment: Inhibitory effect on hepatic chemooncogenesis in rats (DEN/AAF/hepatectomy precancerous lesion model, GST-P immunostaining). In kind it is in vivo, F344 rats. The conditions noted are these: for GST-P^+ area (mm^2/cm^2) mean±S.E. / GST-P^+ foci (N/cm^2) mean±S.E.: 0.01% in chow from week 2 to final day (4-week experiment); for GST-P^+ area (mm^2/cm^2) inhibition (%) / GST-P^+ foci (N/cm^2) inhibition (%): 0.01% in chow, versus own control group. The method, then:
Method: Five-week-old male F344 rats (Slc), a precancerous lesion model was constructed using the following protocol in accordance with the method of Solt and Faber (Nature, 263, 702-703, 1976). [formula] • ↑ : DEN 200 mg/kg, i.p. • : 70% hepatectomy • : 0.02% AAF • : Diet or water • ←→ : Drug administration period
Thus, the duration of the experiment being set at 4 weeks, 200 mg/kg of diethylnitrosoamine (hereinafter referred to briefly as DEN) was first administered intraperitoneally. Beginning week 2, drinking water containing 0.02% of 2-acetylaminofluorene (hereinafter referred to briefly as AAF) was given ad libitum. At the beginning of week 3, 70% hepatectomy was performed. The test drug was mixed into the animal chow (F-2, Funabashi Farm) at the concentration of 0.01% and administered from week 2 through the final day of the experiment. The compound of Example 1 was used as the test drug and 2,4-diamino-6-(2,5-dichlorophenyl)-1,3,5-triazine as the reference compound.
On the final day of the experiment, all the animals were sacrificed by cervical dislocation under ether anaesthesia. Immediately a portion of the liver was excised, quick-frozen in dry ice-acetone, and stored until used. From the liver, 8 µm-thick frozen sections were prepared and using Vectastain ABC Kit (Funakoshi Yakuhin), immunostained by the ABC method (an enzyme-labeled antibody method) using anti-glutathione-S-transferase placental form (hereinafter referred to briefly as GST-P) antibody as the primary antibody. Thus, sections were returned to room temperature under anhydrous conditions and immersed in 10 mM phosphate-buffered saline (hereinafter referred to briefly as PBS) at pH 7.2 for 15 minutes. Then, goat normal serum and the primary antibody (a 500-fold dilution, 20 µl) were applied to the section and allowed to react overnight. After the reaction, the section was washed with PBS. Then, anti-rabbit secondary antibody was applied and the reaction was carried out for 30 minutes. After washing with PBS, avidin-biotin complex was applied and allowed to react for 30 minutes. The section was washed with PBS and treated with 0.1% diaminobenzidine (DAB) containing 0.02% of hydrogen peroxide for color development, dehydrated, and sealed.
The number of GST-P-positive lesions per cm^2 liver tissue section was counted under an optical microscope and the area was measured with an image analyzer (SPICCA-II, Japan Avionics). The significance testing of mean values was made by Student's t-test and the result was evaluated at the 5% leval of significance.

In data set [1] the test system is BCG-LPS-induced fulminant hepatitis. In words: Inhibitory effect on BCG-LPS-induced fulminant hepatitis in mice (antihepatitis effect). Format: in vivo, BALB/C mice. The conditions noted are these: for Number of deaths/number of animals/used: 50 mg/kg orally 1 hour before LPS i.v., deaths at 48 hours, control mortality 80-100%; for inhibition at 50 mg/kg: Mus musculus, po, 50 mg/kg orally, plasma transaminase at hour 4 after LPS. How it is done:
The antihepatitis action of the compound of the invention could be confirmed by the following test in mice. This test is the commonest animal test for evaluating the antihepatitis effect of drugs. It is known that the antihepatitis effect evaluated by this test method is highly correlated with the clinical effect in man (Kondo, Y. et al. Chem. Pharm. Bull. 38, 2887-2889, 1990). Method: Six-week-old male BALB/C mice were intravenously dosed with 1 mg of BCG and after 2 weeks, 50 mg/kg of the test drug was administered orally. Then, after 1 hour, 2.5 µg of lipopolysaccharide (LPS) was injected intravenously to induce hepatitis. To find the LPS-associated mortality, the percentage of deaths at 48 hours was calculated. The mortality in the control group was 80-100%. […] However, for reference's sake, blood was drawn from the orbital vein at hour 4 and the plasma transaminase (GOT, GPT) concentrations were determined. As a reference compound, 2,4-diamino-6-(2,5-dichlorophenyl)-1,3,5-triazine was used.

The nature of the next data set: Acute toxicity. Format: in vivo, Rats (SD strain). The conditions noted are these: 1 g/kg orally by gastric gavage, fasted rats, groups of 5. How it is done:
Rats of either sex (SD strain, […]) were used in groups of 5. The animals were deprived of food from the previous day (16-18 hours before) and 1 g/kg of the compound of Example 1 was administered orally by gastric gavage. Then, deaths during the subsequent one-week period were recorded.

Data set [2] can be described thus: Effect on body weight gain. In kind it is in vivo. The conditions noted are these: 1,000 mg/kg administered repeatedly (daily), rats. The method, then: The compound of Example 1 was administered to rats daily to investigate its effect on body weight gain.

Turning to `Nc1nc(-c2cc(Cl)ccc2Cl)nc(N(CCO)CCO)n1` [Example 1, 2-amino-4-[N,N-bis(2-hydroxyethyl)amino]-6-(2,5-dichlorophenyl)-1,3,5-triazine], in the data set on GST-P-positive lesions, the “GST-P^+ area (mm^2/cm^2) mean±S.E.” value is 0.8± 0.2 mm^2/cm^2, the “GST-P^+ foci (N/cm^2) mean±S.E.” value is 41.5± 5.2 N/cm^2, the “GST-P^+ area (mm^2/cm^2) inhibition (%)” value is 48.6% and the “GST-P^+ foci (N/cm^2) inhibition (%)” value came out at 28.9%. The “Number of deaths/number of animals/used” value in data set [1] is recorded as 2/10**. In addition, the inhibition at 50 mg/kg in data set [1] (read-out: % Inhibition GOT) turned out to be 37%. In data set [1] (read-out: % Inhibition GPT), the inhibition at 50 mg/kg turned out to be 17%. The “deaths during the subsequent one-week period” value in “Acute toxicity” was “no death was found at all”. Moreover, the “effect on body weight gain” value in data set [2] is given as “did not affect body weight gain”.

As for `CNc1nc(N)nc(-c2cc(Cl)ccc2Cl)n1` [Example 2, 2-Amino-4-(2,5-dichlorophenyl)-6-methylamino-1,3,5-triazine], the “Number of deaths/number of animals/used” value in data set [1] is given as 0/10**. Also, the results for the inhibition at 50 mg/kg in data set [1] (read-out: % Inhibition GOT) and in data set [1] (read-out: % Inhibition GPT) were 46% and 33%, respectively.

For `CN(C)c1nc(N)nc(-c2cc(Cl)ccc2Cl)n1` [Example 3, 2-Amino-4-(2,5-dichlorophenyl)-6-dimethylamino-1,3,5-triazine], in data set [1], the “Number of deaths/number of animals/used” value is given as 0/10**. For the same compound, the inhibition at 50 mg/kg in data set [1] (read-out: % Inhibition GOT) came out at 37%; in data set [1] (read-out: % Inhibition GPT) it was 38%.

In the case of `CN(CCO)c1nc(N)nc(-c2cc(Cl)ccc2Cl)n1` [Example 5, 2-Amino-4-(2,5-dichlorophenyl)-6-[N-methyl-N-(2-hydroxyethyl)amino]-1,3,5-triazine], in data set [1], the “Number of deaths/number of animals/used” value was 0/10**. Besides, the inhibition at 50 mg/kg in data set [1] (read-out: % Inhibition GOT) was 43%; in data set [1] (read-out: % Inhibition GPT), 18%.

Consider `COCCNc1nc(N)nc(-c2cc(Cl)ccc2Cl)n1` [Example 6, 2-Amino-4-(2,5-dichlorophenyl)-6-(2-methoxyethylamino)-1,3,5-triazine], for which the “Number of deaths/number of animals/used” value in data set [1] is listed as 2/10**. The inhibition at 50 mg/kg in data set [1] (read-out: % Inhibition GOT) came to 34%; in data set [1] (read-out: % Inhibition GPT), 29%.

Turning to `Cc1ccc(OCCN2CCN(c3nc(N)nc(-c4cc(Cl)ccc4Cl)n3)CC2)cc1` [Example 21, 2-Amino-4-(2,5-dichlorophenyl)-6-[4-[2-(4-methylphenoxy)ethyl]piperazin-1-yl]-1,3,5-triazine], in data set [1], the “Number of deaths/number of animals/used” value is listed as 0/10**. In addition, the inhibition at 50 mg/kg came out at 29% in data set [1] (read-out: % Inhibition GOT) and 10% in data set [1] (read-out: % Inhibition GPT).

Regarding `Nc1nc(-c2cc(Cl)ccc2Cl)nc(N2CCCC2)n1` [Example 30, 2-Amino-4-(2,5-dichlorophenyl)-6-pyrrolidino-1,3,5-triazine], in data set [1], the “Number of deaths/number of animals/used” value is 0/18**. Further, the figures for the inhibition at 50 mg/kg in data set [1] (read-out: % Inhibition GOT) and in data set [1] (read-out: % Inhibition GPT) were 45% and 31%, respectively.

For the compound `Nc1nc(-c2cc(Cl)ccc2Cl)nc(N2CCC(O)C2)n1.O=C(O)/C=C\C(=O)O` (stereo not shown) [Example 31, 2-Amino-4-(2,5-dichlorophenyl)-6-(3-hydroxy-1-pyrrolidinyl)-1,3,5-triazine maleate], the “Number of deaths/number of animals/used” value in data set [1] is reported as 1/18**. Moreover, the inhibition at 50 mg/kg in data set [1] (read-out: % Inhibition GOT) turned out to be 47%; in data set [1] (read-out: % Inhibition GPT) it was 34%.

As to `Cl.Nc1nc(-c2cc(Cl)ccc2Cl)nc(N2CCC[C@H]2CO)n1` [Example 32, (S)-2-amino-4-(2,5-dichlorophenyl)-6-(2-hydroxymethyl-1-pyrrolidinyl)-1,3,5-triazine hydrochloride], the “Number of deaths/number of animals/used” value in data set [1] is given as 0/18**. Further, the inhibition at 50 mg/kg in data set [1] (read-out: % Inhibition GOT) worked out at 62%; in data set [1] (read-out: % Inhibition GPT), 60%.

As to `Cl.Nc1nc(-c2cc(Cl)ccc2Cl)nc(N2CCC[C@@H]2CO)n1` [Example 33, (R)-2-amino-4-(2,5-dichlorophenyl)-6-(2-hydroxymethyl-1-pyrrolidinyl)-1,3,5-triazine hydrochloride], the “Number of deaths/number of animals/used” value in data set [1] is 0/18**. In addition, the inhibition at 50 mg/kg in data set [1] (read-out: % Inhibition GOT) amounted to 39%; in data set [1] (read-out: % Inhibition GPT) it was 41%.

Regarding `Nc1nc(-c2cc(Cl)ccc2Cl)nc(N2CCCC(O)C2)n1` (stereo not shown) [Example 37, 2-Amino-4-(2,5-dichlorophenyl)-6-(3-hydroxy-1-piperidinyl)-1,3,5-triazine], the “Number of deaths/number of animals/used” value in data set [1] is reported as 0/18**. The figures for the inhibition at 50 mg/kg in data set [1] (read-out: % Inhibition GOT) and in data set [1] (read-out: % Inhibition GPT) were 43% and 38%, respectively.

With `Nc1nc(-c2cc(Cl)ccc2Cl)nc(N2CCC(=O)CC2)n1` [Example 56, 2-Amino-4-(2,5-dichlorophenyl)-6-(4-oxo-1-piperidinyl)-1,3,5-triazine], the “Number of deaths/number of animals/used” value in data set [1] is reported as 0/15**. Also, the values for the inhibition at 50 mg/kg in data set [1] (read-out: % Inhibition GOT) and in data set [1] (read-out: % Inhibition GPT) were 38% and 37%, respectively.

`Cl.Cl.NCC1CCN(c2nc(N)nc(-c3cc(Cl)ccc3Cl)n2)C1` (stereo not shown) [Example 62, 2-Amino-4-(2,5-dichlorophenyl)-6-(3-aminomethyl-1-pyrrolidinyl)-1,3,5-triazine dihydrochloride]: the “Number of deaths/number of animals/used” value in data set [1] is on record as 0/15**. Further, the inhibition at 50 mg/kg in data set [1] (read-out: % Inhibition GOT) was 29%; in data set [1] (read-out: % Inhibition GPT) it was 38%.

Regarding `Nc1nc(N)nc(-c2cc(Cl)ccc2Cl)n1` [Reference Compound, 2,4-diamino-6-(2,5-dichlorophenyl)-1,3,5-triazine, reference compound], in the data set with GST-P-positive lesions, the “GST-P^+ area (mm^2/cm^2) mean±S.E.” value turned out to be 3.6±0.7 mm^2/cm^2, the “GST-P^+ foci (N/cm^2) mean±S.E.” value was determined as 67.9± 8.7 N/cm^2, the “GST-P^+ area (mm^2/cm^2) inhibition (%)” value amounted to 7.7% and the “GST-P^+ foci (N/cm^2) inhibition (%)” value turned out to be 9.7%. In data set [1], the “Number of deaths/number of animals/used” value is 0/10*. Also, the inhibition at 50 mg/kg in data set [1] (read-out: % Inhibition GOT) came to 21%. For the same compound, the inhibition at 50 mg/kg in data set [1] (read-out: % Inhibition GPT) is -6%.

As to `Nc1nc(-c2cc(Cl)ccc2Cl)nc(N2CCOCC2)n1` [Reference Example 5, 2-Amino-4-(2,5-dichlorophenyl)-6-morpholino-1,3,5-triazine], the “Number of deaths/number of animals/used” value in data set [1] is 0/18**. For the same compound, the inhibition at 50 mg/kg in data set [1] (read-out: % Inhibition GOT) worked out at 58%; in data set [1] (read-out: % Inhibition GPT), 45%.

Usually inhibition stands for the drop in the measured response relative to a control, in per cent.
